The results in this text go back to the NIST ThermoML archive (doi:10.1016/j.fluid.2005.06.024).

Molecules are shown by their SMILES. ± gives the expanded uncertainty stated by the source.

For data set [1] the following is noted: 298.15 K; 101.3 kPa; Liquid.
The nature of data set [2]: xn = mol fraction of the nth substance listed. To be noted: 298.15 K, 101.3 kPa, Liquid.

Usually mass density stands for mass per unit of volume. As a reminder, the speed of sound is the propagation velocity of pressure waves in the medium. As to `CC(C)=O` [acetone], in data set [1], the mass density worked out at 784.37 ± 0.31 kg/m3 and the speed of sound worked out at 1162 ± 2 m/s.
`CC(C)=O` [acetone] + CCOC(=O)OCC: in data set [2] (x1 = 1), the mass density was found to be 784.37 ± 0.31 kg/m3 and the speed of sound was 1162 ± 2 m/s.
As to `CCC(C)=O` [butanone], in data set [1], the mass density is 799.7 ± 0.35 kg/m3 and the speed of sound turned out to be 1192 ± 2 m/s.
In the case of `CCC(C)=O` [butanone] + CCOC(=O)OCC, in data set [2] (x1 = 1), the mass density is 799.7 ± 0.35 kg/m3 and the speed of sound turned out to be 1192 ± 2 m/s.
For `CCOC(=O)OCC` [diethyl carbonate], in data set [1], the mass density is recorded as 969.24 ± 0.27 kg/m3 and the speed of sound amounted to 1178 ± 2 m/s.
For `CCOC(=O)OCC` [diethyl carbonate] + CC(C)=O, the mass density is 969.24 ± 0.27 kg/m3 in data set [2] (x2 = 0); 964.96 ± 0.27 kg/m3 in data set [2] (x2 = 0.0384); 959 ± 0.26 kg/m3 in data set [2] (x2 = 0.0901); 947.54 ± 0.26 kg/m3 in data set [2] (x2 = 0.1832); 934.21 ± 0.25 kg/m3 in data set [2] (x2 = 0.2827); 919.29 ± 0.25 kg/m3 in data set [2] (x2 = 0.3847). Besides, the mass density in data set [2] (x2 = 0.4847) was determined as 903.08 ± 0.26 kg/m3; in data set [2] (x2 = 0.5888) it was 884.33 ± 0.26 kg/m3; in data set [2] (x2 = 0.6936), 863.26 ± 0.26 kg/m3; in data set [2] (x2 = 0.7967), 839.9 ± 0.27 kg/m3; in data set [2] (x2 = 0.9017), 813 ± 0.29 kg/m3; in data set [2] (x2 = 0.9546), 798.07 ± 0.3 kg/m3. In addition, the speed of sound came out at 1178 ± 2 m/s in data set [2] (x2 = 0); 1177 ± 2 m/s in data set [2] (x2 = 0.0384); 1176 ± 2 m/s in data set [2] (x2 = 0.0901); 1175 ± 2 m/s in data set [2] (x2 = 0.1832); 1173 ± 2 m/s in data set [2] (x2 = 0.2827); 1171 ± 2 m/s in data set [2] (x2 = 0.3847). For the same compound, the speed of sound in data set [2] (x2 = 0.4847) amounted to 1170 ± 2 m/s; in data set [2] (x2 = 0.5888), 1168 ± 2 m/s; in data set [2] (x2 = 0.6936), 1166 ± 2 m/s; in data set [2] (x2 = 0.7967) it was 1164 ± 2 m/s; in data set [2] (x2 = 0.9017) it was 1162 ± 2 m/s; in data set [2] (x2 = 0.9546), 1162 ± 2 m/s.
Regarding `CCOC(=O)OCC` [diethyl carbonate] + CCC(C)=O, the mass density in data set [2] (x2 = 0) is reported as 969.24 ± 0.27 kg/m3; in data set [2] (x2 = 0.0486), 963.14 ± 0.27 kg/m3; in data set [2] (x2 = 0.1002), 956.52 ± 0.28 kg/m3; in data set [2] (x2 = 0.1958) it was 943.68 ± 0.28 kg/m3; in data set [2] (x2 = 0.2977), 929.22 ± 0.29 kg/m3; in data set [2] (x2 = 0.399), 913.95 ± 0.29 kg/m3. Besides, the mass density turned out to be 898.2 ± 0.31 kg/m3 in data set [2] (x2 = 0.4976); 872.87 ± 0.31 kg/m3 in data set [2] (x2 = 0.6444); 859.36 ± 0.32 kg/m3 in data set [2] (x2 = 0.7172); 837.19 ± 0.33 kg/m3 in data set [2] (x2 = 0.8294); 821.58 ± 0.34 kg/m3 in data set [2] (x2 = 0.9031); 810.05 ± 0.34 kg/m3 in data set [2] (x2 = 0.9554). Further, the speed of sound in data set [2] (x2 = 0) turned out to be 1178 ± 2 m/s; in data set [2] (x2 = 0.0486) it was 1178 ± 2 m/s; in data set [2] (x2 = 0.1002) it was 1179 ± 2 m/s; in data set [2] (x2 = 0.1958) it was 1180 ± 2 m/s; in data set [2] (x2 = 0.2977), 1181 ± 2 m/s; in data set [2] (x2 = 0.399) it was 1182 ± 2 m/s. The speed of sound in data set [2] (x2 = 0.4976) stood at 1184 ± 2 m/s; in data set [2] (x2 = 0.6444), 1186 ± 2 m/s; in data set [2] (x2 = 0.7172), 1187 ± 2 m/s; in data set [2] (x2 = 0.8294) it was 1189 ± 2 m/s; in data set [2] (x2 = 0.9031) it was 1190 ± 2 m/s; in data set [2] (x2 = 0.9554), 1191 ± 2 m/s.
Turning to `CCOC(=O)OCC` [diethyl carbonate] + CCCC(C)=O, in data set [2] (x2 = 0), the mass density came to 969.24 ± 0.27 kg/m3 and the speed of sound worked out at 1178 ± 2 m/s.
Take `CCCC(C)=O` [pentan-2-one]: in data set [1], the mass density was found to be 801.39 ± 0.35 kg/m3 and the speed of sound stood at 1212 ± 2 m/s.
As to `CCCC(C)=O` [pentan-2-one] + CCOC(=O)OCC, the mass density was found to be 962.08 ± 0.27 kg/m3 in data set [2] (x1 = 0.0483); 954.6 ± 0.28 kg/m3 in data set [2] (x1 = 0.0983); 940.27 ± 0.28 kg/m3 in data set [2] (x1 = 0.1923); 923.61 ± 0.29 kg/m3 in data set [2] (x1 = 0.2988); 907.38 ± 0.3 kg/m3 in data set [2] (x1 = 0.3998); 890.92 ± 0.31 kg/m3 in data set [2] (x1 = 0.4996). Further, the mass density in data set [2] (x1 = 0.6034) was 873.34 ± 0.31 kg/m3; in data set [2] (x1 = 0.7077) it was 855.18 ± 0.32 kg/m3; in data set [2] (x1 = 0.8037), 838 ± 0.33 kg/m3; in data set [2] (x1 = 0.9026), 819.83 ± 0.34 kg/m3; in data set [2] (x1 = 0.9491), 811.1 ± 0.34 kg/m3; in data set [2] (x1 = 1), 801.39 ± 0.35 kg/m3. In addition, the speed of sound in data set [2] (x1 = 0.0483) is recorded as 1179 ± 2 m/s; in data set [2] (x1 = 0.0983), 1180 ± 2 m/s; in data set [2] (x1 = 0.1923), 1183 ± 2 m/s; in data set [2] (x1 = 0.2988), 1187 ± 2 m/s; in data set [2] (x1 = 0.3998) it was 1190 ± 2 m/s; in data set [2] (x1 = 0.4996), 1193 ± 2 m/s. Moreover, the speed of sound is 1197 ± 2 m/s in data set [2] (x1 = 0.6034); 1201 ± 2 m/s in data set [2] (x1 = 0.7077); 1204 ± 2 m/s in data set [2] (x1 = 0.8037); 1208 ± 2 m/s in data set [2] (x1 = 0.9026); 1210 ± 2 m/s in data set [2] (x1 = 0.9491); 1212 ± 2 m/s in data set [2] (x1 = 1).
